Earlier results on two compounds are cited in patent publication US20070224228A1, “Soap Bars Having Ultraviolet Radiation Protection” (priority 2004, published 2007).

For the series the following is noted: partition coefficient; solvents octanol and water; values printed as approximate (˜).

As a reminder, the Log P is the decadic logarithm of the partition coefficient of the neutral form, usually between octanol and water. As to `CCCCC(CC)COC(=O)C(C#N)=C(c1ccccc1)c1ccccc1` (centres unmarked) [Octocrylene], the “Log P” value is recorded as approximately 6.9.

As for Cyclomethicone, the lipophilicity (Log P) is recorded as approximately 5.7.
